Common to all, as to test: KINOMEscan competition binding
Holding throughout (conditions): compound 10.0 µM

The target in assay [1] is DAPK1 (human) (UniProt P53355).
The target of assay [2] is DAPK2 (human) (UniProt Q9UIK4).
Assay [3] deals with DAPK3 (human) (UniProt O43293).
The target in assay [4] is PIK3CB (human) (UniProt P42338).
Assay [5] deals with PIM2 (human) (UniProt Q9P1W9).
Assay [6] concerns the target PIM3 (human) (UniProt Q86V86).
Assay [7] addresses RPS6KA4 KD2 (human) (UniProt O75676).
For assay [8], the target named is STK17B (human) (UniProt O94768).
Chain of STK17B (human) (O94768 whole entry, looked up): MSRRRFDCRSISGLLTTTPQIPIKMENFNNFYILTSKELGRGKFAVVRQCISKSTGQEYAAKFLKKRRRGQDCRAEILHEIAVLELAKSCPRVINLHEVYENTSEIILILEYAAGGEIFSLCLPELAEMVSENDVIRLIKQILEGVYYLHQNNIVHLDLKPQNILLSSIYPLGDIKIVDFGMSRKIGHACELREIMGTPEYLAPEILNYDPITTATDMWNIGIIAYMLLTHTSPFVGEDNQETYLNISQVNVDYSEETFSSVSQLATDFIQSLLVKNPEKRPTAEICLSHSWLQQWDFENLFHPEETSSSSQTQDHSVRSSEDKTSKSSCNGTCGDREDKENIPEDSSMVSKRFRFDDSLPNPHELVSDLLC
Assay [9] concerns the target TYK2 JH2 pseudokinase (human) (UniProt P29597).
The target in assay [10] is ZAP70 (human) (UniProt P43403).
Assay [11] deals with AAK1 (human) (UniProt Q2M2I8).
For assay [12], the target named is ACVR2A (human) (UniProt P27037).
For assay [13], the target named is ACVR2B (human) (UniProt Q13705).
Assay [14] has as its target BMP2K (human) (UniProt Q9NSY1).
The target in assay [15] is BMPR1B (human) (UniProt O00238).
Assay [16] addresses CDK7 (human) (UniProt P50613).
Assay [17] has as its target CHUK (human) (UniProt O15111).
Assay [18] addresses CLK1 (human) (UniProt P49759).
Assay [19] has as its target CLK2 (human) (UniProt P49760).
The target of assay [20] is CLK3 (human) (UniProt P49761).
Assay [21] addresses CLK4 (human) (UniProt Q9HAZ1).
The target in assay [22] is CSNK2A1 (human) (UniProt P68400).
Assay [23] has as its target CSNK2A2 (human) (UniProt P19784).
Assay [24] deals with DYRK1B (human) (UniProt Q9Y463).
In assay [25] the target is HIPK1 (human) (UniProt Q86Z02).
Assay [26] has as its target MAP2K3 (human) (UniProt P46734).
The target in assay [27] is MAP2K4 (human) (UniProt P45985).
Assay [28] has as its target MAPK15 (human) (UniProt Q8TD08).
Assay [29] deals with MINK1 (human) (UniProt Q8N4C8).
The target of assay [30] is NEK2 (human) (UniProt P51955).
In assay [31] the target is PIM1 (human) (UniProt P11309).
Assay [32] has as its target PIP4K2B (human) (UniProt P78356).
Assay [33] deals with PLK4 (human) (UniProt O00444).
The target in assay [34] is RIOK1 (human) (UniProt Q9BRS2).
Assay [35] addresses RIOK3 (human) (UniProt O14730).
In assay [36] the target is RPS6KA5 KD2 (human) (UniProt O75582).
In assay [37] the target is SRPK3 (human) (UniProt Q9UPE1).
Assay [38] has as its target STK17A (human) (UniProt Q9UEE5).
Assay [39] concerns the target TAOK1 (human) (UniProt Q7L7X3).
In assay [40] the target is TAOK3 (human) (UniProt Q9H2K8).
Assay [41] deals with ALK (human) (UniProt Q9UM73).
Assay [42] has as its system EGFR (human), P00533 [747-751 del / S ins].
The subject of assay [43] is EGFR (human), P00533 [752-759 del].
Assay [44] deals with EGFR (human), P00533 [A750P; 747-749 del].
Assay [45] deals with EGFR (human), P00533 [G719C; 746-750 del].
For assay [46], the system named is EGFR (human), P00533 [L858R].
In assay [47] the test system is EGFR (human), P00533 [L861Q].
For assay [48], the system named is EGFR (human), P00533 [P753S; 747-752 del].
Assay [49] addresses GAK (human) (UniProt O14976).
Assay [50] concerns the target MYLK (human) (UniProt Q15746).
In assay [51] the target is PLK1 (human) (UniProt P53350).
Chain of PLK1 (human) (P53350 whole entry, looked up): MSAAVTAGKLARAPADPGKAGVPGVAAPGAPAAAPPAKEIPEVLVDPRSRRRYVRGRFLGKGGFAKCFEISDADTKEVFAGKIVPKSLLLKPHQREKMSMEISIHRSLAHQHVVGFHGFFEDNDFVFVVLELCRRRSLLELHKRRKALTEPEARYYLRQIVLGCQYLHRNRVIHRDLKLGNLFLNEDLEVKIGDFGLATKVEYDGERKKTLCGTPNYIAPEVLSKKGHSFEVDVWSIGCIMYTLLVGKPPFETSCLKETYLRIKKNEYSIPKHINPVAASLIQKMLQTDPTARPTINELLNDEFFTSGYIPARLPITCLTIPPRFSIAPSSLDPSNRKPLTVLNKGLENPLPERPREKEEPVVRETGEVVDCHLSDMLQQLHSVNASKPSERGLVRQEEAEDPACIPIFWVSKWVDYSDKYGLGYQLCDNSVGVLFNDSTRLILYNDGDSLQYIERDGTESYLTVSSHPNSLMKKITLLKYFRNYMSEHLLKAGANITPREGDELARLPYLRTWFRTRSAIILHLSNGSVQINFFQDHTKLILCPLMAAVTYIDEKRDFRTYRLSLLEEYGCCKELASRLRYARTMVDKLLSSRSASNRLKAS
In assay [52] the target is PLK3 (human) (UniProt Q9H4B4).
Chain of PLK3 (human) (Q9H4B4 whole entry, looked up): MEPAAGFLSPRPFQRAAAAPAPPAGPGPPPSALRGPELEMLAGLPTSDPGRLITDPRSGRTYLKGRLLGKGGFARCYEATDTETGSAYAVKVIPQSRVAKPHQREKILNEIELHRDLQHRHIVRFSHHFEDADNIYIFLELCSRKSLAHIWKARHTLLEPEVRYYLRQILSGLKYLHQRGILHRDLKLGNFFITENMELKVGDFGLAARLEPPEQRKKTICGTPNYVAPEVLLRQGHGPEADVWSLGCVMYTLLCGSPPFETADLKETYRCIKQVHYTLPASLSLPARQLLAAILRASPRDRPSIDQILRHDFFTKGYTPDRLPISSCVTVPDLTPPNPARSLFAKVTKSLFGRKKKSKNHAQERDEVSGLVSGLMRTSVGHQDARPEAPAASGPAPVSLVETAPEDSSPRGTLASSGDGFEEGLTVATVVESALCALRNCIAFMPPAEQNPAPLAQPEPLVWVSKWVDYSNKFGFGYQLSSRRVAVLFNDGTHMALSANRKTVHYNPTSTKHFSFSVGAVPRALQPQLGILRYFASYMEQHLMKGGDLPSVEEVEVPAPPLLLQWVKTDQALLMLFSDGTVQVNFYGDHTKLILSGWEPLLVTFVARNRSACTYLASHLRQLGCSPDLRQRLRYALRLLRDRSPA
In assay [53] the target is PTK2 (human) (UniProt Q05397).
Assay [54] addresses PTK2B (human) (UniProt Q14289).
The target of assay [55] is RPS6KA1 KD2 (human) (UniProt Q15418).
The target of assay [56] is RPS6KA2 KD2 (human) (UniProt Q15349).
The target in assay [57] is SLK (human) (UniProt Q9H2G2).
Assay [58] has as its target STK33 (human) (UniProt Q9BYT3).
Assay [59] deals with TTK (human) (UniProt P33981).
For assay [60], the target named is DCLK1 (human) (UniProt O15075).
The target in assay [61] is MAPK7 (human) (UniProt Q13164).
The target of assay [62] is NLK (human) (UniProt Q9UBE8).
Assay [63] has as its target ROS1 (human) (UniProt P08922).
In assay [64] the target is TNK1 (human) (UniProt Q13470).

Chain of DAPK3 (human) (O43293 whole entry, looked up): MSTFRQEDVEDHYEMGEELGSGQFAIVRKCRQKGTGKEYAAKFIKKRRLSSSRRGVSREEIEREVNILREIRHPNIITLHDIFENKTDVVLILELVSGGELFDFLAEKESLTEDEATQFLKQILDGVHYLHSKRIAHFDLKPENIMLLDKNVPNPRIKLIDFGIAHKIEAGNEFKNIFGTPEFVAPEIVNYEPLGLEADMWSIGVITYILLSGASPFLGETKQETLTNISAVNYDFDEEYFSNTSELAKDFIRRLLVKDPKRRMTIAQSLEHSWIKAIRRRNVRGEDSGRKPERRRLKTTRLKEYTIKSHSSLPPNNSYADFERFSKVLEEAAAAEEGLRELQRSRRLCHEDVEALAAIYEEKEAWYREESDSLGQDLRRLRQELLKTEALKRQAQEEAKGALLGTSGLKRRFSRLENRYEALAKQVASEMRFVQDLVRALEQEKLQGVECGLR
Chain of RPS6KA4 KD2 (human) (O75676 whole entry, looked up): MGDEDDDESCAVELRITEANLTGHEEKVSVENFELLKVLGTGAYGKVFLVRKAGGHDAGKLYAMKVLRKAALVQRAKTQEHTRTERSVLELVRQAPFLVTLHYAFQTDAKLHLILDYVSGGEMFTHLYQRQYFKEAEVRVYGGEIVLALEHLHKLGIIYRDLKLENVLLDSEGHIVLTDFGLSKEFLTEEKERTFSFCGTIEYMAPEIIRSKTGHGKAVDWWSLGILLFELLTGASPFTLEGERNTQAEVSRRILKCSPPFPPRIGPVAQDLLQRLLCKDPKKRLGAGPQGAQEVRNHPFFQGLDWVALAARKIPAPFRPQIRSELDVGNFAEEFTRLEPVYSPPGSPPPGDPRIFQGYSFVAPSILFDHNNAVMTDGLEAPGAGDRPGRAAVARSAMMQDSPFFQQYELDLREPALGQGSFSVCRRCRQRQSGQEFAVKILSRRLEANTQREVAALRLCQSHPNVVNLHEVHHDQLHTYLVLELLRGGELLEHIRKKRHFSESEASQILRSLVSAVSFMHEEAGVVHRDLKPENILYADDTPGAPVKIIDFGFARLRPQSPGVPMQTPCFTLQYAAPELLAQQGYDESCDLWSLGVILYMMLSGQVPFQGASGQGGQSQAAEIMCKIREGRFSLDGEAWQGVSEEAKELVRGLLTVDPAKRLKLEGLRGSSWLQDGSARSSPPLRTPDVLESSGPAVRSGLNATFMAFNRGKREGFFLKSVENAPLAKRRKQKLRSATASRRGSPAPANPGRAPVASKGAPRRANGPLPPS
Chain of GAK (human) (O14976 whole entry, looked up): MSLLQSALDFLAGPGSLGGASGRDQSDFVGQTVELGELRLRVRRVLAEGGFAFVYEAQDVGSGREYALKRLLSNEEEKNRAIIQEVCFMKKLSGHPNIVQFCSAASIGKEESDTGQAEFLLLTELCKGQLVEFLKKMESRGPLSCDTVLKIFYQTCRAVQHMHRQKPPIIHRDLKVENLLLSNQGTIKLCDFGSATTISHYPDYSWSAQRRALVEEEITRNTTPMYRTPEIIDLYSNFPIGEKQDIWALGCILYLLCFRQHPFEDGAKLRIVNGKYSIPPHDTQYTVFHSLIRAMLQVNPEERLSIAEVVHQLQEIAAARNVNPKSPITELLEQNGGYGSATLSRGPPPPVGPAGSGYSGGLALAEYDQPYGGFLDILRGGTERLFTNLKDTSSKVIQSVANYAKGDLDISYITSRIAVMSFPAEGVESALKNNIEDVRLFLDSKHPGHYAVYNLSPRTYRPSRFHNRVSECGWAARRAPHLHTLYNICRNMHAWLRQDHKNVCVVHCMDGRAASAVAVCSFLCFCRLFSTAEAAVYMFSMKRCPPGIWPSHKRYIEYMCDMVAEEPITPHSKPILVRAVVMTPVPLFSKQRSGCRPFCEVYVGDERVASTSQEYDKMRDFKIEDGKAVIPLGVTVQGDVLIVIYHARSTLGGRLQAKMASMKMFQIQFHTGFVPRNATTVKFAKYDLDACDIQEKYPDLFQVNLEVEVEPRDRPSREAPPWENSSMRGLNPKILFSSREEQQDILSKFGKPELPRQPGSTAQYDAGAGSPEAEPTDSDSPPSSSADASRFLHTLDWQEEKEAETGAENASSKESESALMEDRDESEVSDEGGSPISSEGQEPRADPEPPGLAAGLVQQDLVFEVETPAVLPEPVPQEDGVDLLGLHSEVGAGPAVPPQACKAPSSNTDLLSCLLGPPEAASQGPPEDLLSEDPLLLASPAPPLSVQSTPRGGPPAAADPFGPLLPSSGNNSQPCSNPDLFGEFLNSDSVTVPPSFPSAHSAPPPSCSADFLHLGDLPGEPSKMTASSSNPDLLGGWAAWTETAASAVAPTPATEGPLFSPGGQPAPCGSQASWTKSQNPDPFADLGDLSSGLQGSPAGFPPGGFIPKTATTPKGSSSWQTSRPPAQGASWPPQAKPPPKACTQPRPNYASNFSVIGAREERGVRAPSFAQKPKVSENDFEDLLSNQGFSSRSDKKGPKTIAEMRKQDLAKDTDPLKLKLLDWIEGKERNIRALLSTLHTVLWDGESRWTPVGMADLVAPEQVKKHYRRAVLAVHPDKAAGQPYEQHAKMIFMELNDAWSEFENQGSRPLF
Chain of PIM2 (human) (Q9P1W9 whole entry, looked up): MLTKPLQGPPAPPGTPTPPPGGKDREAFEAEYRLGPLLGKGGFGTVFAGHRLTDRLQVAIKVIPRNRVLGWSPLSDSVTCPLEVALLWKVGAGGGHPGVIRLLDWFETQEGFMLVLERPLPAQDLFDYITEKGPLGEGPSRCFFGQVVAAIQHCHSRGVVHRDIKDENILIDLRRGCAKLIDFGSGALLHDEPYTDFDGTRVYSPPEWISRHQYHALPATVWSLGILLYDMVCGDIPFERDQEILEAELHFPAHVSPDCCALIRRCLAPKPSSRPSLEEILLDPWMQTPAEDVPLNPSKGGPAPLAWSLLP

With `O=C1NC(=O)/C(=C/c2cc(-c3ccc(N4CCNCC4)nc3)c[nH]c2=O)S1`, the kinase still bound, per cent of control in [1] was 4.4%; in assay [2], 10%; in assay [3] it was 10%; in [4], 6.2%; in assay [5], 14%; in assay [6], 30%. Moreover, the kinase still bound, per cent of control turned out to be 3.2% in assay [7], 18% in assay [8], 14% in assay [9] and 11% in [10].

Take `N=C1NC(=O)/C(=C/c2c[nH]c(=O)c(-c3ccc(S(N)(=O)=O)cc3)c2)S1`: the kinase still bound, per cent of control worked out at 13% in assay [11]; 25% in assay [12]; 16% in assay [13]; 13% in [14]; 5.7% in assay [15]; 26% in assay [16]. Besides, the kinase still bound, per cent of control in assay [17] amounted to 18%; in [18], 16%; in [19], 5.1%; in assay [20], 3.5%; in [21], 28%; in assay [22], 26%. Also, the kinase still bound, per cent of control was found to be 25% in [23]; 12% in assay [1]; 5.2% in assay [2]; 9.4% in [3]; 23% in [24]; 16% in [25]. Besides, the kinase still bound, per cent of control amounted to 2.2% in assay [26]; 24% in assay [27]; 3.3% in assay [28]; 24% in [29]; 30% in assay [30]; 16% in assay [31]. In addition, the kinase still bound, per cent of control in assay [5] was 4.8%; in assay [6], 12%; in assay [32], 22%; in assay [33] it was 24%; in assay [34], 31%; in [35], 17%. The kinase still bound, per cent of control in [7] was found to be 0.9%; in assay [36] it was 2.2%; in [37], 33%; in [38] it was 23%; in [8] it was 28%; in [39] it was 4.2%. Besides, the kinase still bound, per cent of control in assay [40] amounted to 22%.

On to `COc1cc(C(=O)NC2CCN(C)CC2)ccc1Nc1ncc2c(n1)N(CCc1ccccc1)CCC(=O)N2C`, for which the kinase still bound, per cent of control was 22% in assay [41]; 28% in assay [42]; 33% in [43]; 19% in [44]; 23% in assay [45]; 22% in assay [46]. Also, the kinase still bound, per cent of control amounted to 28% in assay [47]; 31% in assay [48]; 6.4% in assay [49]; 31% in assay [50]; 1.9% in [51]; 6.5% in assay [52]. Further, the kinase still bound, per cent of control in [53] worked out at 34%; in [54], 17%; in assay [55], 32%; in assay [56], 32%; in assay [57], 22%; in assay [58], 13%. In addition, the kinase still bound, per cent of control in [59] came to 5.2%.

For the compound `COc1cc(N2CCC(C(N)=O)CC2)ccc1Nc1ncc2c(n1)N(C1CCCC1)[C@@H]1CCC[C@@H]1C(=O)N2C`, the kinase still bound, per cent of control in assay [60] was 15%; in assay [49], 12%; in assay [61], 0.1%; in [62], 31%; in assay [51] it was 19%; in [52] it was 4.3%. The kinase still bound, per cent of control amounted to 28% in assay [33], 31% in [63], 18% in [64] and 10% in [59].
